Test results: US20180153897A1, “RIBOFLAVIN FOR THE TREATMENT OF ISCHEMIC STROKE AND/OR OTHER GLUTAMATE EXCITOTOXICITY-ASSOCIATED DISEASES” (priority 2015, published 2018)
Structures can show the parent of a compound that is named as a salt. Where two headings read alike, the source gives them in different places.

What was measured:
recombinant human GOT = biological target: T1, recombinant human GOT (Homo sapiens, UniProt P17174); assay: GOT activity assay (inhibition of glutamate formation), photometric kit; type: biochemical; conditions: for Maximum of inhibition of glutamate formation in confirmatory assay (%): confirmatory dose-response assay
T1 construct: purchased Abcam ab99147
T1 sequence (P17174 whole entry): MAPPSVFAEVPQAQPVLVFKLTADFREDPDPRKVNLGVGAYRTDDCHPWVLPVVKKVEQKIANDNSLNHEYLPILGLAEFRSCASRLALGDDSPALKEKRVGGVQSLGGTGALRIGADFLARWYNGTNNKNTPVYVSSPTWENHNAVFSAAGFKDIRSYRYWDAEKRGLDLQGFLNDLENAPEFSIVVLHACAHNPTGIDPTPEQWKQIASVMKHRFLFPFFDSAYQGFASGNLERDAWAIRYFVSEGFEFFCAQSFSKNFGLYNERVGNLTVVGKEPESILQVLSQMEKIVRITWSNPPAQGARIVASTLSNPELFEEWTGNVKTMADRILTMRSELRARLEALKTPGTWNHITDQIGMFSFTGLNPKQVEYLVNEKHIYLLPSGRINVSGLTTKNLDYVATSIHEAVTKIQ

blood glutamate [1] = assay: Blood glutamate in ischemic (MCAO) animals; type: in vivo, rat; conditions: MCAO rats, 2 hours after administration
Procedure: Treatments were administered after artery reperfusion (45 min after occlusion). A total of 10 animals per group were included in this study. […] Infarct volume analysis were evaluated during the occlusion (30 min after occlusion), and 24h and 7 days after ischemia induction. Infarct volume determined at 30 min after artery occlusion (analyzed by diffusion weighted imaging, DWI) (Perez-Mato, M., et al., Cell Death Dis., 2014, 5:e992) was determined before treatments administration to confirm that all animals included in the study were submitted to the same ischemic insult. These values were used as basal infarct volume. […] With this purpose, dose of 35mg/Kg (average weight of animals: 350 g) of oxaloacetate (Ref 171263, Sigma) was prepared in a saline solution (0.9% of NaCl, pH adjusted to 7.4) at a final concentration of 12.25 mg/mL. […] Dose of 1 mg/Kg of riboflavin (Ref. 4500, Sigma) initially dissolved in a minimal amount of dimethyl sulfoxide (DMSO) and then dissolved in a saline solution (0.9% of NaCl, pH adjusted to 7.4) at a final concentration of 0.35 mg/mL. […] Serum samples were collected in test tubes, centrifuged at 3000 r.p.m. for 7 min, serum was removed and immediately frozen and stored at −80 ° C. Serum glutamate concentration was determined by means of Glutamate Assay Kit (Abnova, Taipei City, Taiwan) following the manufacturer's technical specifications. […]

[2] = biological target: T2, succinate dehydrogenase (SDH) (Homo sapiens, UniProt P31040); assay: Complex II Enzyme Activity Microplate Assay (SDH inhibition); type: biochemical; conditions: dose-response curve, FIG. 1; enzyme extracted from HepG2 cells
T2 construct: endogenous in cells; host or cells: HepG2 (ATCC HB-8065); complex captured with Abcam Complex II Enzyme Activity Microplate Assay ab109908
T2 sequence (P31040 43-664): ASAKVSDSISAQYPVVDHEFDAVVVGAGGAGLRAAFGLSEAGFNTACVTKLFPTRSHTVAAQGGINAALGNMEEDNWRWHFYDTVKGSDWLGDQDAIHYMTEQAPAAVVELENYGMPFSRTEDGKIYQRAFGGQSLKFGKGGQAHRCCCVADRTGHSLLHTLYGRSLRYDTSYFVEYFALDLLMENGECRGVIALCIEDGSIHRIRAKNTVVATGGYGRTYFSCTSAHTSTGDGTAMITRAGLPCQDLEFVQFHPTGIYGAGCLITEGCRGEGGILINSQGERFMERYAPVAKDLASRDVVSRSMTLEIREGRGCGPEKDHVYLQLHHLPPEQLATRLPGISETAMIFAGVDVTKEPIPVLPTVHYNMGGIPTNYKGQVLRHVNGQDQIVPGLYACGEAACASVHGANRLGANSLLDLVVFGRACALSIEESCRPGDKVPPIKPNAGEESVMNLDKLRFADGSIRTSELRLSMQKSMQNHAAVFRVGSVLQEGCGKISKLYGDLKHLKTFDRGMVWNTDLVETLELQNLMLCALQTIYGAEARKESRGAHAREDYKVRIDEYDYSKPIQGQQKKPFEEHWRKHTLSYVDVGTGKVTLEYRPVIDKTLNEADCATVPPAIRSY
T2 sequence (P21912 29-280 partner): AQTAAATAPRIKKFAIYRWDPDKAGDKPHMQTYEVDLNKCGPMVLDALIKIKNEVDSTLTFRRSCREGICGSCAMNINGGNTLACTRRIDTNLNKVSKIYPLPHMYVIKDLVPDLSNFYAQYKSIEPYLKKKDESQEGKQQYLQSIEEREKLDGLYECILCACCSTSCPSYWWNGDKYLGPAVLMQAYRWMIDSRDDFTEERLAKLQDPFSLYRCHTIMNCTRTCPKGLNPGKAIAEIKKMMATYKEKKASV
T2 sequence (Q99643 30-169 partner): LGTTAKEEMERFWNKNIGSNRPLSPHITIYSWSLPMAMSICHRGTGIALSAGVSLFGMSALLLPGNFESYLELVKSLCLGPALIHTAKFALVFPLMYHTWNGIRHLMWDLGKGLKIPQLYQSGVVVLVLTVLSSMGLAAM
T2 sequence (O14521 57-159 partner): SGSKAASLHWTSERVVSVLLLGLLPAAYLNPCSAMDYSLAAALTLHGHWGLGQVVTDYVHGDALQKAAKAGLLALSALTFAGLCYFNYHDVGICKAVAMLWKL
Description: To evaluate possible toxic effects on SDH, a secondary assay was set up, using Complex II Enzyme Activity Microplate Assay (from Abcam, ref. ab109908), based on the detection of 2,6-diclorophenolindophenol (DCPID), blue, which is reduced in contact with Ubiquinol, turning colorless and involving the measurement of a decrease in absorbance at 595 nm. The enzyme was extracted from HepG2 cells (ATCC, ref. HB-8065), following manufacturer's instructions.

blood glutamate [3] = assay: Blood glutamate lowering in healthy animals; type: in vivo, rat; conditions: healthy rats; for percentage of blood glutamate lowering (respect to basal levels): riboflavin 1, 10 and 50 mg/Kg i.v.
Procedure: Experimental protocols were approved by the local Animal Care Committee according to the European Union (EU) rules (86/609/CEE, 2003/65/CE and 2010/63/EU). Male Sprague-Dawley rats (Harlan Laboratories, Barcelona, Spain) with an average weight of 350 g were used. Rats were watered and fed ad libitum. The dose-response effect of riboflavin on blood glutamate lowering was determined in healthy animals. Three (3) doses of riboflavin were tested (i.v.), 1, 10 and 50 mg/Kg (weight of animal). As control group was used animals treated with saline (0.9% of NaCl, pH adjusted to 7.4), and as positive control group, animals treated with oxaloacetate 35 mg/Kg. […] A total of 6 animals per group were included in this study. […] With this purpose, dose of 35mg/Kg (average weight of animals: 350 g) of oxaloacetate (Ref 171263, Sigma) was prepared in a saline solution (0.9% of NaCl, pH adjusted to 7.4) at a final concentration of 12.25 mg/mL. Dose of 15 mg/Kg of oxaloacetate was prepared in saline solution (0.9% of NaCl, pH adjusted to 7.4) at a final concentration of 5.25 mg/mL. Dose of 1 mg/Kg of riboflavin (Ref. 4500, Sigma) initially dissolved in a minimal amount of dimethyl sulfoxide (DMSO) and then dissolved in a saline solution (0.9% of NaCl, pH adjusted to 7.4) at a final concentration of 0.35 mg/mL. […] Serum samples were collected in test tubes, centrifuged at 3000 r.p.m. for 7 min, serum was removed and immediately frozen and stored at −80 ° C. Serum glutamate concentration was determined by means of Glutamate Assay Kit (Abnova, Taipei City, Taiwan) following the manufacturer's technical specifications.

MCAO rats = assay: Infarct volume by MRI in MCAO rats; type: in vivo, rat; conditions: riboflavin 1 mg/Kg, 24 h and 7 days after ischemia
Procedure: Four (4) experimental groups were performed: 1) a control group treated with saline (0.9% of NaCl, pH adjusted to 7.4), 2) a group treated with riboflavin 1 mg/Kg, 3) a group treated with riboflavin 1 mg/Kg in combination with dose of oxaloacetate a non-effective (15 mg/Kg) and 4) a positive control group treated with oxaloacetate 35 mg/Kg. […] Treatments were administered after artery reperfusion (45 min after occlusion). A total of 10 animals per group were included in this study. […] Infarct volume analysis were evaluated during the occlusion (30 min after occlusion), and 24h and 7 days after ischemia induction. Infarct volume determined at 30 min after artery occlusion (analyzed by diffusion weighted imaging, DWI) (Perez-Mato, M., et al., Cell Death Dis., 2014, 5:e992) was determined before treatments administration to confirm that all animals included in the study were submitted to the same ischemic insult. These values were used as basal infarct volume. […] Infarct volume, also referred herein as infarct size, was assessed by means of magnetic resonance imaging (MRI). […] Infarct volumes were determined from (ADC maps) and T2-weighted images by manually selecting areas of reduced ADC values or hyperintense T2 signal by a researcher blinded to the animal protocols.

[4] = inhibition of glutamate formation, confirmatory assay, read-out: IC50(μM) in confirmatory assay
[5] = dose-response curve, FIG. 1, read-out: IC50 (GOT)

Row | Compound | IC50 (recombinant human GOT; [5]) | IC50 [2] | Maximum of inhibition of glutamate formation in confirmatory assay (%) (recombinant human GOT) | IC50 (recombinant human GOT; [4]) | also measured
1 | (−)-3-(3,4-Dihydroxyphenyl)-2-methyl-L-alanine sesquihydrate [CBG000361] | – | – | 38.5% | 117 µM | –
2 | CN1CCc2cccc3c2[C@H]1Cc1ccc(O)c(O)c1-3.CN1CCc2cccc3c2[C@H]1Cc1ccc(O)c(O)c1-3.Cl.Cl.O [CBG000083, R-(−)-Apomorphine hydrochloride hemihydrate] | – | – | 56.5% | 58.1 µM | –
3 | CC(CCc1ccc(O)cc1)NCCc1ccc(O)c(O)c1 (centres unmarked) [CBG000332, Dobutamine hydrochloride] | – | – | 35.5% | 81.7 µM | –
4 | Doxycycline hyclate [CBG000814] | – | – | 32% | 15.1 µM | –

Continued, in another order:

Row | IC50 (recombinant human GOT; [5]) | IC50 [2] | Compound | Maximum of inhibition of glutamate formation in confirmatory assay (%) (recombinant human GOT) | IC50 (recombinant human GOT; [4]) | also measured
5 | 130 µM | 1.8 µM | O=C(O)CC(=O)C(=O)O [oxaloacetate, 3-carboxy-3-oxopropanoate] | – | – | reduction of blood glutamate levels respect to basal levels (blood glutamate [1]; oxaloacetate 35 mg/Kg at reperfusion): about 30%; percentage of glutamate levels reduction (blood glutamate [3]; oxaloacetate 35 mg/Kg i.v., 2, 4 and 6 hours): ≤ 40%; reduction of blood glutamate levels (blood glutamate [3]; oxaloacetate 35 mg/Kg i.v., 30 min): no effect
6 | 1.9 µM | 10.8 µM | Cc1cc2nc3c(=O)[nH]c(=O)nc-3n(C[C@H](O)[C@H](O)[C@H](O)CO)c2cc1C [CBG000592, 7,8-dimethyl-10-[(2S,3S,4R)-2,3,4,5-tetrahydroxypentyl]benzo[g]pteridine-2,4-dione] | 63% | 1.96 µM | reduction of blood glutamate levels respect to basal levels (blood glutamate [1]; riboflavin 1 mg/Kg at reperfusion): about 30%; percentage of blood glutamate lowering (respect to basal levels) (blood glutamate [3]; 30 min): about 25%; percentage of blood glutamate lowering (respect to basal levels) (blood glutamate [3]; 2 h): about 50%; percentage of blood glutamate lowering (respect to basal levels) (blood glutamate [3]; 4 h): 60%; percentage of blood glutamate lowering (respect to basal levels) (blood glutamate [3]; 6 h): 50%; lesion size (infarct volume) versus control (MCAO rats): significant (p<0.001) decrease of lesion size
